In ChEMBL document CHEMBL1759988, “Isatin-β-thiosemicarbazones as potent herpes simplex virus inhibitors” (Bioorg Med Chem Lett, 2011) one finds CC50 and IC50 data, which are given here for 38 molecules.

Data set [1] is described as follows: Cytotoxicity against human RD cells. In kind it is cell-based.
For data set [2], the system named is Human alphaherpesvirus 1. Nature of the data set: Antiviral activity against HSV1 by plaque reduction assay. In kind it is functional, organism-based. Background: Plaque reduction counts the foci of infection that form in a cell layer.
Data set [3] has as its system Human alphaherpesvirus 2. Nature of the data set: Antiviral activity against HSV2 by plaque reduction assay. In kind it is functional, organism-based.

One may read the CC50 as the concentration giving 50% cytotoxicity. A lower CC50 goes with harm at low concentration. A word on the IC50: it is the concentration at which inhibition is half-maximal. Higher therefore signals a need for much substance.

Turning to `CN1C(=O)/C(=N\NC(=S)Nc2ccccc2)c2ccccc21`, the CC50 in data set [1] was above 25 µM. In addition, the IC50 in data set [2] and in data set [3] was above 25 µM throughout.
Molecule `Cc1ccc2c(c1)/C(=N/NC(=S)Nc1ccccc1)C(=O)N2` had a CC50 in data set [1] above 25 µM. Moreover, the IC50 in data set [2] and in data set [3] was above 25 µM each time.
In data set [1], `CCNC(=S)N/N=C1\C(=O)Nc2ccccc21` came in with a CC50 above 25 µM. Besides, the 50% inhibitory concentration (IC50) in data set [2] and in data set [3] was above 25 µM in each case.
As for `Cc1cccc(NC(=S)NNC2=c3ccccc3=NC2=O)c1`, the CC50 in data set [1] was above 25 µM. In addition, the IC50 was 3.84 µM in data set [2] and above 25 µM in data set [3].
In data set [1], `CN(C)C(=S)N/N=C1/C(=O)Nc2ccccc21` had a CC50 above 25 µM. The IC50 in data set [2] and in data set [3] was above 25 µM throughout.
Consider `O=C1Nc2ccccc2/C1=N/NC(=S)Nc1ccc(Br)cc1`, for which, in data set [1], the CC50 was above 25 µM. Besides, the IC50 in data set [2] was 3.29 µM; in data set [3], above 25 µM.
`O=C1Nc2ccccc2/C1=N/NC(=S)N1CCOCC1` gave a CC50 in data set [1] above 25 µM. Besides, the IC50 in data set [2] amounted to 1.3 µM; in data set [3] it was 2.74 µM.
Molecule `O=C(N/N=C1\C(=O)Nc2ccccc21)Nc1ccccc1` gave a CC50 in data set [1] above 25 µM. Moreover, the IC50 in data set [2] and in data set [3] was above 25 µM throughout.
In data set [1], `Cc1ccc(NC(=S)N/N=C2\C(=O)Nc3ccccc32)cc1` displayed a CC50 above 25 µM. Besides, the IC50 in data set [2] and in data set [3] was above 25 µM in each case.
Take `O=C1Nc2ccc(Cl)cc2/C1=N/NC(=S)Nc1ccccc1`: the 50% cytotoxic concentration (CC50) in data set [1] was above 25 µM. The IC50 in data set [2] and in data set [3] was above 25 µM each time.
The molecule `O=C1/C(=N\NC(=S)Nc2ccccc2)c2ccccc2N1Cc1ccccc1` gave a CC50 in data set [1] above 25 µM. The IC50 in data set [2] and in data set [3] was above 25 µM throughout.
For `O=C1Nc2ccccc2/C1=N/NC(=S)Nc1ccc(-n2cccn2)cc1`, the CC50 in data set [1] is above 25 µM. For the same molecule, the results for the IC50 in data set [2] and in data set [3] were 6.21 µM and above 25 µM, respectively.
`O=C1/C(=N\NC(=S)Nc2ccccc2)c2ccccc2N1c1ccccc1`: the CC50 in data set [1] was above 25 µM. Further, the IC50 in data set [2] and in data set [3] was above 25 µM in each case.
Molecule `O=C1Nc2ccccc2/C1=N/NC(=S)Nc1ccccc1Cl` yielded a CC50 in data set [1] above 25 µM. Also, the IC50 in data set [2] and in data set [3] was above 25 µM each time.
For `CCN1C(=O)/C(=N\NC(=S)Nc2ccccc2)c2ccccc21`, in data set [1], the CC50 was above 25 µM. The IC50 in data set [2] and in data set [3] was above 25 µM each time.
In the case of `CCN(CC)C(=S)N/N=C1\C(=O)Nc2ccccc21`, the CC50 in data set [1] was above 25 µM. The IC50 in data set [2] is above 25 µM; in data set [3], 1.54 µM.
Turning to `CCCN(CCC)C(=S)N/N=C1/C(=O)Nc2ccccc21`, in data set [1], the CC50 was above 25 µM. In addition, the IC50 in data set [2] and in data set [3] was above 25 µM each time.
For `O=C1Nc2ccccc2/C1=N/NC(=S)Nc1ccccc1`, in data set [1], the CC50 was above 25 µM. Moreover, the values for the IC50 in data set [2] and in data set [3] were 2.97 µM and above 25 µM, respectively.
In data set [1], `O=C1Nc2ccccc2/C1=N/NC(=S)Nc1ccc(N2CCOCC2)cc1` returned a CC50 above 25 µM. In addition, the IC50 in data set [2] and in data set [3] was above 25 µM in each case.
`CNC(=S)N/N=C1\C(=O)Nc2ccccc21` displayed a CC50 in data set [1] above 25 µM. Moreover, the IC50 in data set [2] and in data set [3] was above 25 µM each time.
Consider `COc1ccccc1NC(=S)N/N=C1\C(=O)Nc2ccccc21`, for which the cytotoxic concentration (CC50) in data set [1] was above 25 µM. Besides, the IC50 in data set [2] and in data set [3] was above 25 µM each time.
In data set [1], `COc1cccc(NC(=S)N/N=C2\C(=O)Nc3ccccc32)c1` displayed a CC50 above 25 µM. For the same molecule, the IC50 was 2.64 µM in data set [2] and above 25 µM in data set [3].
For the molecule `O=C1Nc2ccc(F)cc2/C1=N/NC(=S)Nc1ccccc1`, in data set [1], the cytotoxic concentration (CC50) was above 25 µM. For the same molecule, the IC50 in data set [2] and in data set [3] was above 25 µM each time.
`Cc1ccccc1NC(=S)N/N=C1\C(=O)Nc2ccccc21`: in data set [1], the CC50 is above 25 µM. Besides, the IC50 in data set [2] and in data set [3] was above 25 µM each time.
In data set [1], `O=C1Nc2ccccc2/C1=N/NC(=S)Nc1ccc(Cl)cc1` displayed a CC50 above 25 µM. In addition, the IC50 in data set [2] was 2.69 µM; in data set [3], above 25 µM.
Regarding `O=C1Nc2ccccc2/C1=N/NC(=S)N1CCCC1`, the CC50 in data set [1] was above 25 µM. Moreover, the IC50 is above 25 µM in data set [2] and 5.8 µM in data set [3].
The molecule `Cc1ccc(NC(=O)N/N=C2\C(=O)Nc3ccccc32)cc1` displayed a CC50 in data set [1] above 25 µM. The IC50 in data set [2] and in data set [3] was above 25 µM throughout.
Consider `COc1ccc2c(c1)/C(=N/NC(=S)Nc1ccccc1)C(=O)N2`, for which, in data set [1], the CC50 is above 25 µM. Moreover, the IC50 in data set [2] is 5.01 µM; in data set [3], above 25 µM.
In data set [1], `COc1ccc(NC(=S)NNC2=c3ccccc3=NC2=O)cc1` showed a CC50 above 25 µM. Moreover, the results for the IC50 in data set [2] and in data set [3] were 2.2 µM and above 25 µM, respectively.
`O=C1Nc2ccc(OC(F)(F)F)cc2/C1=N/NC(=S)Nc1ccccc1`: in data set [1], the CC50 is above 25 µM. In addition, the figures for the IC50 in data set [2] and in data set [3] were 5.9 µM and above 25 µM, respectively.
As to `COc1cccc(NC(=O)N/N=C2\C(=O)Nc3ccccc32)c1`, the CC50 in data set [1] is above 25 µM. The IC50 in data set [2] and in data set [3] was above 25 µM throughout.
`O=C1Nc2ccccc2/C1=N/NC(=S)Nc1ccc(F)cc1` showed a CC50 in data set [1] above 25 µM. Further, the IC50 in data set [2] and in data set [3] was above 25 µM each time.
`CCCNC(=S)N/N=C1\C(=O)Nc2ccccc21` yielded a CC50 in data set [1] above 25 µM. Also, the IC50 in data set [2] and in data set [3] was above 25 µM each time.
On to `O=C1Nc2ccccc2/C1=N/NC(=S)N1CCCCC1`, for which the CC50 in data set [1] was above 25 µM. The IC50 is above 25 µM in data set [2] and 3.14 µM in data set [3].
Turning to `Nc1nc2c(ncn2COCCO)c(=O)[nH]1` [ACYCLOVIR], the CC50 in data set [1] was above 25 µM. The IC50 in data set [2] is 0.3 µM; in data set [3], 1.27 µM.
As for `O=C1Nc2ccccc2/C1=N/NC(=S)Nc1cccc(Cl)c1`, the CC50 in data set [1] was above 25 µM. For the same molecule, the IC50 in data set [2] and in data set [3] was above 25 µM each time.
In turn, `O=C1Nc2ccc(Br)cc2/C1=N/NC(=S)Nc1ccccc1` displayed a CC50 in data set [1] above 25 µM. In addition, the IC50 in data set [2] and in data set [3] was above 25 µM in each case.
For the molecule `Cc1cccc(NC(=O)N/N=C2\C(=O)Nc3ccccc32)c1`, the CC50 in data set [1] was above 25 µM. In addition, the IC50 in data set [2] and in data set [3] was above 25 µM each time.
